# Test results published in ChEMBL document CHEMBL3507680, “University of Dundee, Gates Library screen for HepG2 cell viability”.
# Assay: Human HepG2 cell viability assay in 384 well format
# Format: toxicity, cell-based
# Parameters: dose 125 nL, time 70.5 hour; cytotoxicity at 70.5 h: concentration not given beside the values
# Settings: HepG2 cells, read-out: Inhibition
row,SMILES,cytotoxicity at 70.5 h
1,CC(C)CSCCN1CCN(S(C)(=O)=O)CC1,0.763%
2,O=C(NCc1ccc2c(c1)CCCO2)c1cn2c(n1)CNCC2,5.37%
3,CCOCc1ncn2c1CN(S(=O)(=O)c1cccc(C)c1)CC2,-1.4%
4,Cc1nc(C2CCCN(c3ncc(Br)cn3)C2)no1 (stereo not drawn),-13.9%
5,O=C(COCC(=O)N(c1ccccc1)c1ccccc1)N1CCCCC1,19.2%
6,CCNC(=O)C1(Cc2ccc(-c3ccccc3)cc2)CCCNC1 (stereo not drawn),4.78%
7,COc1cccc(C(=O)Nc2cc(CC(C)C)nn2C)c1,3.59%
8,CC(C)c1nnc2n1CCN(C(=O)c1cccc(OCC(N)=O)c1)C2,-2.06%
9,c1ccc(CN2CCN(c3ccc4nncn4n3)CC2)nc1,-9.47%
10,CCc1nc(NS(=O)(=O)c2cc(C)c(F)cc2Cl)no1,25.9%
11,CN(Cc1ccc2nonc2c1)C(=O)c1ccc(C2CCCO2)s1 (stereo not drawn),-4.66%
12,CN(C)C(=O)N1C[C@@H]2CC[C@H](C1)N(C/C=C/c1ccc(F)cc1)C2,-9.21%
13,Cc1ccc(CCC(=O)N2CCC(Nc3cccnn3)CC2)cc1,1.83%
14,CCN1CCCCC1C(=O)N1CCC(OC2CCCC2)CC1 (stereo not drawn),6.41%
15,O=S1(=O)C[C@@H]2[C@H](C1)N(S(=O)(=O)N1CCCC1)CCN2Cc1ccccc1,-5.47%
16,Cc1c(C)n2c(SCC(=O)N3CCC(C)CC3)nnc2[nH]c1=O,-4.99%
17,COc1ccc(CNc2c(C)nn(C(C)C)c2C)cc1OC,-2.06%
18,CCn1c(C)cc(C(=O)N2CCC(Nc3ccc(C)nn3)CC2)c1C,-91.3%
19,COc1cccc(N2CCN(C(=O)C(O)c3cccc(Cl)c3)CC2=O)c1 (stereo not drawn),6.54%
20,Cc1cc(CN2CCC(CNC(=O)Cc3ccc(F)cc3)C2)[nH]n1 (stereo not drawn),-7.47%
21,CN(CCCc1n[nH]c(N)c1C#N)C(=O)NC1CC1,-2.78%
22,Cc1cc(C)n(CC2CCCCN2C(=O)c2sccc2C#N)n1 (stereo not drawn),1.28%
23,Cc1csc(CNCC(C)c2nc3ccccc3o2)n1 (stereo not drawn),15%

row,SMILES,cytotoxicity at 70.5 h
1,O=C(O)CSc1nc(-c2ccc3c(c2)CCC3)n[nH]1,2.18%
2,O=C1CC2(CCN(CC3CCOC3)CC2)CN1Cc1cc(F)cc(F)c1 (stereo not drawn),-6.96%
3,CNC(=O)C1(CCCc2cccnc2)CCCCN1 (stereo not drawn),-1.91%
4,O=S(=O)(Cc1ccccc1CN1CCOCC(O)C1)c1ccccc1 (stereo not drawn),14.8%
5,COCCN1CCC(CN(C)c2nc3c(s2)c(C)nn3C)CC1,13.5%
6,CC(Cn1cccn1)NC(=O)NCCN1CCc2ccccc2C1 (stereo not drawn),0.199%
7,Cc1cc(C(=O)Nc2ccc(OCCN3CCN(C)CC3)cc2)[nH]n1,0.21%
8,COc1cc2nc(NCCNS(C)(=O)=O)cc(C)c2cc1OC,-0.473%
9,CC(=O)NCC(=O)N(CCc1ccccc1)C1CCOC1 (stereo not drawn),-9.4%
10,CS(=O)(=O)NCCNC(=O)c1cnc(-c2ccccc2)nc1,-4.82%
11,Cn1ccc(C(=O)N2CCCC2c2cc(CO)[nH]n2)n1 (stereo not drawn),-2.72%
12,CC(C)(C)SCC(=O)Nc1cc(-n2nnnc2C2CC2)ccc1F,10.5%
13,Cc1ccc(CC(=O)N2CCCC(c3nc(C)cs3)C2)cn1 (stereo not drawn),-17.4%
14,COC(=O)c1ccc(S(=O)(=O)N(C)CC(N)=O)c(Cl)c1,-3.22%
15,COCCN(C)C(=O)c1nc2c(s1)CCCN2c1ccc(C)nn1,-1.66%
16,Cc1nn(CC(=O)N2CCN(c3ncccn3)CC2)c(C)c1Cl,21.2%
17,Cc1n[nH]c(C)c1-c1cnc(C2CCN(S(C)(=O)=O)CC2)cn1,-6.98%
18,Cc1cc(C(F)F)nn1CC(=O)NCc1nccn1C,-3.8%
19,COc1cc(C)c(C(C)NC(=O)NCCCn2cncn2)cc1OC (stereo not drawn),-5.14%
20,CCSc1ccc(NC(=O)NC(C)c2c(C)noc2C)cn1 (stereo not drawn),-6.61%
21,CC1CCN(c2cc(CCC3CCCN3)ncn2)CC1 (stereo not drawn),-3.6%
22,Cc1ccc(OC2(C(=O)O)CCN(C(=O)c3ccoc3C)CC2)cn1,-0.44%
23,CC(C)(C)c1nnc(CN2CCN(C(=O)CC3CCCCC3)CC2)o1,-2.8%

row,SMILES,cytotoxicity at 70.5 h
1,CO[C@@H]1CN(C)S(=O)(=O)[C@@]12CCN(Cc1ccccc1)C2,-7.27%
2,CN(C)c1ncc(NS(=O)(=O)c2ccc(OC(F)(F)F)cc2)cn1,3.34%
3,CC(C)CC(=O)N1CCCC1c1nccnc1Nc1ncccn1 (stereo not drawn),29.4%
4,CC(C)(C)OCCN(Cc1cccc(O)c1)C1CCC(O)CC1 (stereo not drawn),-3.74%
5,CC(C)NC(=O)C1CCN(c2snc3ccccc23)CC1,-9.65%
6,CC(=O)N(C)CC(=O)Nc1ccc(C)cc1OCc1ccccc1,-1.76%
7,Cc1nc(CO[C@H]2CN(C(=O)c3cccn3C)[C@@H]3COC[C@H]23)cs1,-11.5%
8,NCC(=O)N1CCC(c2cccc(Oc3ccccc3)n2)CC1,-7.22%
9,N#CCCN(CC1CCCO1)C(=O)c1ccc2nonc2c1 (stereo not drawn),0.813%
10,CC(C)NC(=O)[C@H]1CN(Cc2ccccc2)C[C@@H]1C(=O)c1ccccc1,-1.04%
11,COC(CNC(=O)C1CC1)c1ccc(C)s1 (stereo not drawn),19.1%
12,Cc1ncsc1CN1CC(C)(C2CC2)CC1=O (stereo not drawn),-12.2%
13,C=Cn1ncc(CN2CCc3nc(-c4ccncc4)nc(O)c3C2)c1C,-4.39%
14,CCC1CN(C(=O)c2csc(-c3cnn(C)c3)n2)CCO1 (stereo not drawn),-10.2%
15,CCc1ncc(CN2C[C@H]3CC[C@@H]2CN(C(=O)C2CCC2)C3)cn1,-6.96%
16,CN(Cc1ccncc1)C1COC2(CCN(Cc3ccccn3)CC2)C1 (stereo not drawn),-7%
17,c1cncc(CNCc2cccs2)c1,26%
18,CS(=O)(=O)c1cc(S(N)(=O)=O)ccc1NCC1CCCO1 (stereo not drawn),-3.22%
19,Cc1nnc(N2CC[C@@H](OCC3CC3)[C@@H](Cc3ccccc3)C2)s1,-7.86%
20,COc1ccsc1C(=O)N1CCCC1c1c(C)nn(C)c1OC (stereo not drawn),-4.7%
21,COCCc1noc(CN2CC(Cc3ccccc3)CC2=O)n1 (stereo not drawn),-20.5%
22,OC1CCN(c2ccnc(NCCN3CCc4ccccc4C3)n2)C1 (stereo not drawn),-13.9%
23,CC(c1ccco1)N(C(=O)Cn1nc2n(c1=O)CCCCC2)C1CC1 (stereo not drawn),18%

row,SMILES,cytotoxicity at 70.5 h
1,O=C(O)CCC(=O)Nc1nn(Cc2ccccc2Cl)cc1Cl,-5.22%
2,CCc1nccn1C1CCCN(C(=O)c2csc(C3CC3)n2)C1 (stereo not drawn),-22%
3,CC(C)S(=O)(=O)NCc1cccnc1Oc1ccc(F)cc1F,1.03%
4,COc1ccc(CN2CCC3(CC2)CCN(CC(=O)N(C)C)C3=O)cc1,-16.7%
5,CC(C)CCN(C(=O)c1cc2c([nH]c1=O)CCCC2=O)C1CC1,-2.36%
6,CCCS(=O)(=O)N1CC(=O)N(Cc2cccc(OC)c2OC)CC(O)C1 (stereo not drawn),9.04%
7,CCN(CC)Cc1nc2c(o1)CN(C(=O)c1ccncc1F)C2,-4.3%
8,Cc1ccc(CN2C[C@@H]3CN(CC4CCOCC4)CCO[C@@H]3C2)s1,8.99%
9,COCCNC(=O)c1cnc(C)nc1C,34.7%
10,Cc1noc([C@H]2COC[C@H]3CN(C(=O)Cc4cccs4)C[C@H]32)n1,-12.6%
11,CSC(C)(C)CNC(=O)NCC[S+]([O-])c1ccccc1 (stereo not drawn),-6.22%
12,COc1ccc(Nc2nc(N)c(C(C)=O)s2)cc1Cl,-9.72%
13,CN(Cc1noc(C(C)(C)C)n1)Cc1ccccc1N1CCCC1,-8.02%
14,CCC(NC(=O)Nc1cc(F)c(OC)c(F)c1)c1noc(C)n1 (stereo not drawn),0.154%
15,CC(=O)N1CCN(C(=O)Nc2ccccc2)CC2(CC(=O)N(C)C2)C1 (stereo not drawn),26.3%
16,O=C1OCCN1CC(=O)N1C[C@H]2CC[C@@H]1CN(Cc1cscn1)C2,27.8%
17,COC(=O)c1cc2n(n1)CCCN(C(=O)Cc1c[nH]c3ccccc13)C2,-13.9%
18,N#Cc1cc(N2CCC(S(N)(=O)=O)CC2)c2ccccc2n1,-2.54%
19,O=C(c1ccc(F)c(F)c1)N1C[C@H]2CNC[C@H]2C1,-11.5%
20,COc1ccc(CNC(=O)CCCc2nnc3ccc(OC)nn23)cc1,-14.6%
21,O=C(CN(Cc1cccc(F)c1)CC1CCCO1)N1CCCC1 (stereo not drawn),13.7%
22,CCc1noc(C(C)N2CCc3c(ncn3C3CC3)C2)n1 (stereo not drawn),28.1%
23,COc1ccc(-n2cccn2)c(CN2CCC3(CCCN(C)C3=O)C2)c1 (stereo not drawn),-9.91%

row,SMILES,cytotoxicity at 70.5 h
1,O=C(Cc1cccnc1)N1CCCC2(CCN(CC3CCOCC3)C2)C1 (stereo not drawn),1.37%
2,CCCc1n[nH]c(C2CN(C(=O)CCc3cscn3)CCO2)n1 (stereo not drawn),-1.57%
3,Cc1ccc2c(c1)C(NC(=O)N(C)C)CC21CCN(CC2CC2)CC1 (stereo not drawn),-9.46%
4,CCOC(=O)[C@]12CCCN(Cc3cccs3)C[C@H]1CN(CC(C)C)C2,-2.32%
5,Cc1nnc(SCc2cc(=O)n3c4c(sc3n2)CCCC4)[nH]1,-8.32%
6,COCC(=O)NC1CC2(CCN(CCF)CC2)Oc2ccccc21 (stereo not drawn),-10.9%
7,O=C(c1ccc(O)cn1)N1CCOC(c2ccc(Cl)c(Cl)c2)C1 (stereo not drawn),-3.33%
8,COc1ccc(O[C@H]2COCCN(C(=O)c3ccno3)C2)cc1,-2.74%
9,COc1ccc(CCC(=O)N2CCCC2Cn2cc(C)cn2)cc1F (stereo not drawn),-6.64%
10,CC(=O)Nc1cccc2c1ccn2CC(=O)Nc1n[nH]c(CC(C)C)n1,-5.98%
11,CN1CCC(Cc2noc(CCc3nc4ccccc4nc3O)n2)CC1,-7.26%
12,Cc1nn(CC(=O)Nc2ccon2)cc1Br,-10.2%
13,Cc1nn(C)c(C)c1NC(=O)CN1CCN(c2nccs2)C(C)C1 (stereo not drawn),-6.35%
14,Cc1nc(CN2CCN(C(=O)c3sccc3C3CC3)CC2)oc1C,12.6%
15,O=C(NC1CCCN(c2ccc(OC(F)F)cc2)C1)c1cnc[nH]1 (stereo not drawn),-11.2%
16,Cc1nc(CN2CCC23CCN(Cc2ccoc2)CC3)cs1,-6.82%
17,Cc1cc(C)n(C2CN(CCC(N)=O)C2)n1,0.833%
18,CC[C@@H](CO)NC(=O)c1cccc(CCC(C)(C)O)c1,-6.14%
19,COc1ncccc1C(=O)N1CCCC1c1c(C)nn(C)c1Cl (stereo not drawn),-0.671%
20,Cc1cnn(CC2CCCN2C(=O)Cc2cccs2)c1 (stereo not drawn),-8.39%
21,CCCN1CCN(S(=O)(=O)c2ncn(C)c2Cl)CC1,-4.77%
